We go through eight compounds from patent US12049518B2, “Pharmacokinetics and cholecystokinin-2 receptor (CCK2R) targeting for diagnosis and therapy” (Medizinische Universitat Innsbruck, priority 2017, dated 2024).

One series addresses T1, human CCK2R (Homo sapiens, UniProt P32239).
T1 construct: expressed in transfected cells; host or cells: A431 human epidermoid carcinoma cells (A431-CCK2R), plasmid pCR3.1, provided by Dr. Luigi Aloj
T1 sequence (P32239 1-447): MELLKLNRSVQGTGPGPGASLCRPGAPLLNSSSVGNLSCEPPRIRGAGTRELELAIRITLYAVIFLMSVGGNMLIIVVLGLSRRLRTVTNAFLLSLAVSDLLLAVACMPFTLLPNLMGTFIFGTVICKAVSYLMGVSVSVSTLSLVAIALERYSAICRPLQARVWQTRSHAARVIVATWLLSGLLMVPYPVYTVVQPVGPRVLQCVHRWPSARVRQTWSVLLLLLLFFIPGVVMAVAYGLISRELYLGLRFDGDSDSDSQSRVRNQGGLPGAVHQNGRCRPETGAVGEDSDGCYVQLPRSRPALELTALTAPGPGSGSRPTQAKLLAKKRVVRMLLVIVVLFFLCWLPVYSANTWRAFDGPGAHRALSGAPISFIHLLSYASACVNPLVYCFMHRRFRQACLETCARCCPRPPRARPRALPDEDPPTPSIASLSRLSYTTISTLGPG
Nature of the series: CCK2R competition binding assay against [125I]Tyr12-gastrin-I on A431-CCK2R cells. How it is done: Affinity for CCK2R was studied in A431 human epidermoid carcinoma cells stably transfected with the plasmid pCR3.1 containing the full coding sequence for the human CCK2R (A431-CCK2R) kindly provided by Dr. Luigi Aloj (Aloj L et al., J Nucl Med 2004, 45: 485-494). […] Radioiodination of gastrin-1 was carried out using the chloramine-T method. Non-carrier-added [^125I-Tyr^12]gastrind was obtained by HPLC purification and stored in aliquots at −20° C. Binding assays were carried out in 96-well filter plates (MultiScreenHTS-FB, Merck Group, Darmstadt, Germany) pretreated with 10 mM TRIS/139 mM NaCl pH 7.4 (2×250 μl). For the assay a number of 200,000-400,000 A431-CCK2R cells per well was prepared in 35 mM HEPES buffer pH 7.4 containing 10 mM MgCl2, 14 μM bacitracin and 0.5% BSA (a hypotonic solution disturbing the integrity of the cell membranes). The cells were incubated in triplicates with increasing concentrations of the peptidomimetics (0.0003 to 10,000 nM, for example 0.001 to 1000 nM) and [^125I-Tyr^12]gastrin-I (20,000-60,000 cpm) for 1 h at RT. Incubation was interrupted by filtration of the medium and rapid rinsing with ice-cold 10 mM TRIS/139 mM NaCl pH 7.4 (2×200 μl) and the filters were counted in the gamma-counter. Half maximal inhibitory concentration (IC50) values were calculated following nonlinear regression with Origin software (Microcal Origin 6.1, Northampton, MA) and a representative assay was chosen for comparison.

Series [1] can be described thus: biodistribution: uptake in normal tissues. The series is classed as in vivo, athymic BALB/c nude mice. As to the method: Biodistribution studies evaluating the tumour uptake of the radiolabelled inventive CCK2R targeting peptide analogues were performed in 7-week-old female athymic BALB/c nude mice (Charles River, Sulzfeld, Germany). All animal experiments were conducted in compliance with the Austrian animal protection laws and with the approval of the Austrian Ministry of Science. For the induction of tumour xenografts, A431-CCK2R and A431-mock cells were injected subcutaneously in the right and left flank respectively (2 million cells in 200 μl). When tumours had reached a size of approximately 0.2 ml biodistribution studies were carried out. Groups of 4 mice were injected intravenously via a lateral tail vein with the peptidomimetics of the present invention, labelled with ^111In (approximately 0.2 MBq and 0.02 nmol peptidomimetic), with ^68Ga (approximately 0.8 MBq and 0.02-0.03 nmol peptidomimetic), with ^177Lu (approximately 0.5 MBq and 0.02 nmol peptidomimetic) or with ^99mTc (approximately 0.3 MBq and 0.02 nmol peptidomimetic). After a time period of 1 or 4 h post-injection (p.i.) the animals were sacrificed by cervical dislocation, tumours and other tissues (blood, lung, heart, muscle, bone, spleen, intestine, liver, kidneys, stomach, pancreas) were removed, weighed, and their radioactivity measured in the gamma counter. Results were expressed as percentage of injected activity per gram tissue (% IA/g) and tumour to organ activity ratios were calculated from the activity measured in the dissected tissues. In FIG. 4 the results of the biodistribution studies at 4 h p.i. are summarized for the ^111In-labelled peptidomimetics of the present invention in comparison with ^111In-DOTA-MGS1 and ^111In-DOTA-MGS4 (Klingler M et al., Eur J Nucl Med Mol Imaging 2017, 44: S228). In FIG. 5 the results for the model peptidomimetics of the present invention, DOTA-MGS5 and HYNIC-MGS5, radiolabelled with different radiometals are shown for different time points of 1 or 4 h p.i. […] The uptake in A431-mock tumour xenografts with values <1% IA/g was very low confirming the high receptor-specific tumour uptake. […] A combination of high stability and increased protein binding in vivo seems therefore to result in an optimal protection of the radioligand against enzymatic degradation in blood allowing reaching an extremely high tumour uptake.

A further series has as its system serum proteins. As to the kind of experiment: protein binding to serum proteins (Sephadex G-50 size-exclusion chromatography). The class given is in vitro ADME. Particulars: 37° C.; for fraction unbound at 4 h, 500 pmol/mL / fraction unbound at 24 h, 500 pmol/mL: fresh human serum; for fraction unbound at 4 h, 500 pmol/mL: read-out: Percentage of radioligand bound to serum proteins after 4 h incubation (converted); for fraction unbound at 24 h, 500 pmol/mL: read-out: Percentage of radioligand bound to serum proteins after 24 h incubation (converted); for Percentage of radioligand bound to serum proteins after 24 h incubation: human serum. How it is done:
Additionally, protein binding to serum proteins was investigated. For this purpose the ^111In-labelled peptidomimetics were incubated in duplicates in fresh human serum at 37° C. (500 pmol/mL) and analyzed after 4 and 24 h by Sephadex G-50 size-exclusion chromatography (GE Healthcare Illustra, Little Chalfont, UK). The percentage of protein binding was determined by measuring the column and the eluate in a 2480 Wizard 2 automatic gamma-counter (Perkin Elmer Life Sciences and Analytical Sciences, Turku, F).
(In gel filtration, larger molecules generally elute earlier.)

The conditions of series [2]: in vivo, Nock et al. 2014; cited from earlier work.
Series [3] is described as follows: stability in vivo (radio-HPLC of blood sample). Conditions: BALB/c mice, i.v., 10 min p.i. As to the method: To further characterise the stability of the radiolabelled peptidomimetics in vivo, metabolic studies were carried out in 5-6-week-old female BALB/c mice (Charles River, Sulzfeld, Germany) injected intravenously with the ^111In- and […] peptidomimetics. All animal experiments were conducted in compliance with the Austrian animal protection laws and with the approval of the Austrian Ministry of Science. To allow monitoring of the metabolites by radio-HPLC, mice were injected with a higher amount of radioactivity (5-15 MBq ^111In and 20-40 MBq ^177Lu, corresponding to 1-2 nmol total peptide) through a lateral tail vein and euthanized by cervical dislocation 10 or 30 min post injection (p.i.). A sample of blood was collected and the degradation was assessed by radio-HPLC.

Where [4] appears, read: displacement of [125I]Tyr12-gastrin-I, A431-CCK2R cells, 1 h at RT, read-out: IC50.
The mark [5] stands for this setting: female, athymic BALB/c nude, mouse, kidneys, iv, total radioactivity, 1 or 4 h p.i. (111In-labelled series: 4 h p.i.), read-out: kidney uptake.
Setting [6] is: CCK2R expressing organ, 1 or 4 h p.i.

Like-named read-outs stand apart in the source and are kept apart here. Where a SMILES comes first, the peptide text is derived from it. [ ]: non-standard residue; d: D form. The star is where a group is joined. DOTA = O=C(O)CN1CCN(CC(=O)O)CCN(CC(=O)*)CCN(CC(=O)O)CC1; 1Nal = N[C@@H](Cc1cccc2ccccc12)C(=O)O; NMeNle = CCCC[C@H](NC)C(=O)O

Usually IC50 stands for the concentration that gives 50% inhibition. For the compound `CCCC[C@@H](C(=O)N[C@@H](CC(=O)O)C(=O)N[C@@H](Cc1ccc2ccccc2c1)C(N)=O)N(C)C(=O)[C@H](Cc1c[nH]c2ccccc12)NC(=O)CNC(=O)[C@H](Cc1ccc(O)cc1)NC(=O)[C@H](C)NC(=O)[C@@H](CCC(=O)O)NC(=O)CN1CCN(CC(=O)O)CCN(CC(=O)O)CCN(CC(=O)O)CC1` [DOTA-MGS5-2, DOTA-DGlu-Ala-Tyr-Gly-Trp-(N-Me)Nle-Asp-2Nal-NH2], the IC50 on human CCK2R (setting [4]) amounted to 1.6 ± 0.4 nM.

For `CCCC[C@@H](C(=O)N[C@@H](CC(=O)O)C(=O)N[C@@H](Cc1cccc2ccccc12)C(N)=O)N(C)C(=O)[C@H](Cc1c[nH]c2ccccc12)NC(=O)CNC(=O)[C@H](Cc1ccc(O)cc1)NC(=O)[C@H](C)NC(=O)[C@@H](CCC(=O)O)NC(=O)CN1CCN(CC(=O)O)CCN(CC(=O)O)CCN(CC(=O)O)CC1` [DOTA-MGS5, DOTA-DGlu-Ala-Tyr-Gly-Trp-(N-Me)Nle-Asp-1Nal-NH2], on human CCK2R (setting [4]), the IC50 is 0.4 ± 0.2 nM. Moreover, the tissue uptake fell in the range of 4 to 6 %ID/g in series [1] (setting [5]); 2 to 3 %ID/g in series [1] (female, athymic BALB/c nude, mouse, pancreas, iv, total radioactivity, CCK2R expressing organ, 1 or 4 h p.i., read-out: uptake in pancreas); 5 to 8 %ID/g in series [1] (female, athymic BALB/c nude, mouse, stomach, iv, total radioactivity, CCK2R expressing organ, 1 or 4 h p.i., read-out: uptake in stomach).

As to `CCCC[C@@H](C(=O)N[C@@H](CC(=O)O)C(=O)N[C@@H](Cc1cccc2ccccc12)C(N)=O)N(C)C(=O)[C@H](Cc1c[nH]c2ccccc12)NC(=O)CNC(=O)[C@H](Cc1ccc(O)cc1)NC(=O)[C@@H]1CCCN1C(=O)[C@@H](CCC(=O)O)NC(=O)CN1CCN(CC(=O)O)CCN(CC(=O)O)CCN(CC(=O)O)CC1` [DOTA-MGS8, DOTA-DGlu-Pro-Tyr-Gly-Trp-(N-Me)Nle-Asp-1Nal-NH2] ({DOTA}-[dE]PYGW[NMeNle]D[1Nal]-NH2), the IC50 at human CCK2R (setting [4]) is 1.6 ± 0.2 nM.

Regarding `CSCC[C@H](NC(=O)[C@H](Cc1c[nH]c2ccccc12)NC(=O)CNC(=O)[C@H](Cc1ccc(O)cc1)NC(=O)[C@H](C)NC(=O)[C@@H](CCC(=O)O)NC(=O)[C@@H](CCC(=O)O)NC(=O)[C@@H](CCC(=O)O)NC(=O)[C@@H](CCC(=O)O)NC(=O)[C@@H](CCC(=O)O)NC(=O)[C@@H](CCC(=O)O)NC(=O)CN1CCN(CC(=O)O)CCN(CC(=O)O)CCN(CC(=O)O)CC1)C(=O)N[C@@H](CC(=O)O)C(=O)N[C@@H](Cc1ccccc1)C(N)=O` [PP-F11, reference compound], the half-inhibitory concentration (IC50) on human CCK2R was 0.4 ± 0.1 nM.

For `CCCC[C@@H](C(=O)N[C@@H](CC(=O)O)C(=O)N[C@@H](Cc1cccc2ccccc12)C(N)=O)N(C)C(=O)[C@H](Cc1c[nH]c2ccccc12)NC(=O)CNC(=O)[C@@H]1CCCN1C(=O)[C@H](Cc1ccc(O)cc1)NC(=O)[C@@H](CCC(=O)O)NC(=O)CN1CCN(CC(=O)O)CCN(CC(=O)O)CCN(CC(=O)O)CC1` [DOTA-MGS10, DOTA-DGlu-Tyr-Pro-Gly-Trp-(N-Me)Nle-Asp-1Nal-NH2] ({DOTA}-[dE]YPGW[NMeNle]D[1Nal]-NH2), the IC50 on human CCK2R (setting [4]) turned out to be 0.9 ± 0.2 nM.

For the compound `CSCC[C@H](NC(=O)[C@H](Cc1c[nH]c2ccccc12)NC(=O)CNC(=O)[C@H](Cc1ccc(O)cc1)NC(=O)[C@H](C)NC(=O)[C@@H](CCC(=O)O)NC(=O)CN1CCN(CC(=O)O)CCN(CC(=O)O)CCN(CC(=O)O)CC1)C(=O)N[C@@H](CC(=O)O)C(=O)N[C@@H](Cc1ccccc1)C(N)=O` [^111In-DOTA-MG11, metal not drawn, reference compound] ({DOTA}-[dE]AYGWMDF-NH2), in the series on serum proteins, the fraction unbound at 4 h, 500 pmol/mL was 0.899; the fraction unbound at 24 h, 500 pmol/mL was 0.938; the “Percentage of radioligand bound to serum proteins after 24 h incubation” value was < 10%. Also, the “intact radiopeptide 5 min after injection” value in series [2] was 5%.

With `CCCC[C@@H](C(=O)N[C@@H](CC(=O)O)C(=O)N[C@@H](Cc1cccc2ccccc12)C(N)=O)N(C)C(=O)[C@H](Cc1c[nH]c2ccccc12)NC(=O)CNC(=O)[C@H](Cc1ccc(O)cc1)NC(=O)[C@H](C)NC(=O)[C@@H](CCCCN)NC(=O)CN1CCN(CC(=O)O)CCN(CC(=O)O)CCN(CC(=O)O)CC1` [^111In-DOTA-MGS9, metal not drawn] ({DOTA}-[dK]AYGW[NMeNle]D[1Nal]-NH2), in the series with serum proteins, the fraction unbound at 4 h, 500 pmol/mL is 0.734; the fraction unbound at 24 h, 500 pmol/mL was 0.722; the “Percentage of radioligand bound to serum proteins after 24 h incubation” value is given as ~30%. The “intact radioligand present in the blood at 10 min p.i.” value in series [3] came to 93.9±1.2%. In addition, in series [1] (female, athymic BALB/c nude, mouse, intestine and liver, iv, 0.02 nmol peptidomimetic, total radioactivity, 4 h p.i.), the tissue uptake at 4 h was ~2 %ID/g. In addition, the tissue uptake in series [1] (setting [5]) turned out to be 20.7 ± 4.4 %ID/g.

Regarding `CCCC[C@@H](C(=O)N[C@@H](CC(=O)O)C(=O)N[C@@H](Cc1cccc2ccccc12)C(N)=O)N(C)C(=O)[C@H](Cc1c[nH]c2ccccc12)NC(=O)CNC(=O)[C@H](Cc1ccc(O)cc1)NC(=O)[C@H](C)NC(=O)[C@@H](CCC(=O)O)NC(=O)c1ccc(NN)nc1` [^99mTc-HYNIC-MGS5, metal not drawn], the kidney uptake in series [1] (1 or 4 h p.i. (111In-labelled series: 4 h p.i.)) worked out at 8 % IA/g. In series [1] (setting [6]), the uptake in pancreas was found to be 7 % IA/g and the uptake in stomach came to 13 % IA/g.
